Test results from paper PMC2904697, “A Screen for Kinetochore-Microtubule Interaction Inhibitors Identifies Novel Antitubulin Compounds” (PLoS ONE, 2010).

Columns and labels:
[1] = test system: recombinant CLIP-170^488 binding to taxol-stabilized MTs; assay: CLIP-170^488 binding to taxol-stabilized MTs (specificity control); conditions: compound B at 50 µmol/l
Description: Figure 2 Compound B prevents the recombinant Ndc80 kinetochore complex from binding to taxol-stabilized microtubules. Effect of compound B (50 µmol/l) on binding of the Ndc80^488 complex to rhodamine-labeled, taxol-stabilized MTs as assayed using inverted wide-field fluorescence microscopy. The scale bar represents 4 µm (A). Structure of compound B; 6-furan-2-yl-3-methyl-4-oxo-4,5,6,7-tetrahydro-1H-indole-2-carboxylic acid (tetrahydro-furan-2-yl)methyl ester (B). Measurement of the IC50 value of compound B using total internal reflection fluorescence microscopy. The scale bar represents 4 µm (C). Compound B (50 µmol/l) prevented MT-associating protein CLIP-170^488, used as a specificity control, from binding to taxol-stabilized MTs. The scale bar represents 4 µm (D). […] The scale bar represents 4 µm (E).
A compound inhibiting the Ndc80^488 complex-MT interaction could act either against the complex or against the MTs. To probe the specificity of compound B toward the Ndc80^488 complex, we examined its ability to inhibit MT binding of recombinant CLIP-170^488, a MT plus-end tracking protein.

HeLa cells = assay: Ability of the compound to enter cells; type: cell-based, human
Description: During the last twenty-five years antispindle drugs have been used with great success in the fight against cancer. However, as cancer cells are developing resistance against these drugs, there is an urgent need for compounds targeting alternative mitotic targets. As kinetochores orchestrate chromosome segregation and comprise >100 proteins, they are appealing mitosis-specific drug targets. The high antitumor activity of compounds inhibiting kinetochore regulators (Aurora kinase, PLK1) and the kinetochore-associated kinesin CENP-E supports the concept of targeting kinetochore function to eradicate proliferating cells, [9], [19]. The complexity of kinetochores, the lack of insight into intrakinetochore protein-protein contacts and protein-activity relationships, as well as the difficulty to produce kinetochore subunits in large quantities for use in in vitro screens has long hampered the conversion of structural kinetochore components into anticancer drug targets. […] As the Ndc80 complex can be produced recombinantly in high quantity and because the recombinant complex is fully active as shown following injection in cells we focused on this complex to screen for inhibitors of kinetochore-MT binding. […]

**Q.** `N#CC(=Cc1ccc(-c2ccc(C(=O)O)cc2)o1)c1nc2ccccc2[nH]1` [compound C, 4-5-2-1H-benzimidazol-2-yl-2-cyano-vinyl-furan-2-yl-benzoic acid] was tested. Which “Effect on binding of CLIP-170^488 to taxol-stabilized MTs” value [1] did it give?
**A.** did not inhibit

**Q.** What about the Cell entry (HeLa cells) of the same compound?
**A.** inability of the compound to enter cells
